Reference: US10975068B2, “6-aminopyridin-3-yl thiazoles as modulators of RORγT” (Janssen Pharmaceutica NV, priority 2016, dated 2021)
pIC50, pKd: −log10 of the molar value. Where two headings read alike, the source gives them in different places.

What was measured:
[1] = molecular target: human RORγt ligand binding domain (RORγt LBD) (Homo sapiens (Human), UniProt P51449); experiment: RORγt ThermoFluor® assay (thermal shift binding); settings: read-out: ThermoFluor® Assay, Kd
Method in brief: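 Binding was inferred from thermal stabilisation (ΔTm) of the E. coli-expressed RORγt LBD (0.065 mg/mL), monitored by 1,8-ANS (60 μM) emission at 500 nm during a 1 °C/min ramp. Buffer was Hepes 100 mM pH 7.0 with NaCl, GSH and Tween-20.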

full-length human RORγt = full-length human RORγt (Homo sapiens (Human), UniProt P51449); experiment: RORγt (full-length human) reporter assay, Conditions B or C; type: cell-based; settings: for inhibition at 1 µM: at 1 μM compound concentration; for inhibition at 1 µM / inhibition at 3 µM / inhibition at 0.33 µM: read-out: RORγt (FL) Reporter Assay B or C, % inhibition; for inhibition at 3 µM: at 3 μM compound concentration; for inhibition at 0.33 µM: at 0.33 μM compound concentration
full-length human RORγt, sequence (P51449 other isoform, or with tags, fused parts or gaps): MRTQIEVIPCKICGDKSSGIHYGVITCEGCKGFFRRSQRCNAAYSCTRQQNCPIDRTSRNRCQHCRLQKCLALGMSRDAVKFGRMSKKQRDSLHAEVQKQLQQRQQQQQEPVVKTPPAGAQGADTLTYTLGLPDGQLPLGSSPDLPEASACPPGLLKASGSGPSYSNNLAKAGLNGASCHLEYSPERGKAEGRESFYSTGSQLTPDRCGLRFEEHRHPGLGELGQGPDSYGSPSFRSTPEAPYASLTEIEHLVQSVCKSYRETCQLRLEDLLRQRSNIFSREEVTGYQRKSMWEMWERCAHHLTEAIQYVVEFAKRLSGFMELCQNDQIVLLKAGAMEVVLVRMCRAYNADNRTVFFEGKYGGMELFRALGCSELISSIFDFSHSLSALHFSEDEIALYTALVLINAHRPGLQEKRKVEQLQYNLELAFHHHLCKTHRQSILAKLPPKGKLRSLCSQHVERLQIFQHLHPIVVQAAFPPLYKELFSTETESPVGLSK
Method in brief: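 Readout is dual luciferase: firefly (GAL4-driven) normalized to DMSO-only and saturating-reference controls, then to CMV-Renilla. Full-length human RORγt fused to GAL4-DBD was transiently expressed in HEK293T; compound exposure ran overnight (16-20 h) starting 4-6 h after transfection, final FBS 1.3%, DMSO 0.1%.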

[2] = read-out: RORγt (FL) Reporter Assay B or C, IC50
[3] = RORγt (FL) Reporter Assay B or C, IC50

human RORγt ligand binding domain (RORγt LBD), sequence (P51449 other isoform, or with tags, fused parts or gaps): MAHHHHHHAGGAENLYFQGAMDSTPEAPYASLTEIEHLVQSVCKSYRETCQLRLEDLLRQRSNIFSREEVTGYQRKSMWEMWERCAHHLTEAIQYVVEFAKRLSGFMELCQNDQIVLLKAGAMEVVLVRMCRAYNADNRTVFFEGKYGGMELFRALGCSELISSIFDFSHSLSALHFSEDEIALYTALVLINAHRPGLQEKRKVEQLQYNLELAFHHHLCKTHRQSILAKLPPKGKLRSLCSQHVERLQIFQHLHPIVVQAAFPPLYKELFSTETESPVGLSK

| pKd [1] | pIC50 (full-length human RORγt; [2]) | inhibition at 3 µM (full-length human RORγt) [%] | inhibition at 0.33 µM (full-length human RORγt) [%] | SMILES | inhibition at 1 µM (full-length human RORγt) [%] | pIC50 (full-length human RORγt; [3]) |
| --- | --- | --- | --- | --- | --- | --- |
| 9.00 | 7.19 |  |  | C[C@H](Nc1cc(C(F)F)c(-c2sc(C(=O)NC3CCS(=O)(=O)CC3)nc2C(=O)N2CC(F)(F)C[C@@H]2C)cn1)C(F)(F)F [Example 421, 4-[(2S)-4,4-Difluoro-2-methyl-pyrrolidine-1-carbonyl]-5-[4-(difluoromethyl)-6-[[(1S)-2,2,2-trifluoro-1-methyl-ethyl]amino]-3-pyridyl]-N-(1,1-dioxothian-4-yl)thiazole-2-carboxamide] | 98 |  |
| 9.21 | 7.64 | 101 |  | CC[C@H](Nc1cc(C(F)F)c(-c2sc(C(=O)NC3CCOCC3)nc2C(=O)N2CC(F)(F)C[C@@H]2C)cn1)C(F)(F)F [Example 422, 4-[(2S)-4,4-Difluoro-2-methyl-pyrrolidine-1-carbonyl]-5-[4-(difluoromethyl)-6-[[(1S)-1-(trifluoromethyl)propyl]amino]-3-pyridyl]-N-tetrahydropyran-4-yl-thiazole-2-carboxamide] |  |  |
| 8.96 | 7.42 | 103 |  | CC[C@H](Nc1cc(C(F)F)c(-c2sc(C(=O)N[C@H](C)CO)nc2C(=O)N2CC(F)(F)C[C@@H]2C)cn1)C(F)(F)F [Example 423, 4-[(2S)-4,4-Difluoro-2-methyl-pyrrolidine-1-carbonyl]-5-[4-(difluoromethyl)-6-[[(1S)-1-(trifluoromethyl)propyl]amino]-3-pyridyl]-N-[(1R)-2-hydroxy-1-methyl-ethyl]thiazole-2-carboxamide] |  |  |
| 9.64 | 7.20 | 98 |  | CC[C@H](Nc1cc(C(F)F)c(-c2sc(C(=O)N[C@@H]3CC[C@@H](O)C3)nc2C(=O)N2CC(F)(F)C[C@@H]2C)cn1)C(F)(F)F [Example 424, 4-[(2S)-4,4-Difluoro-2-methyl-pyrrolidine-1-carbonyl]-5-[4-(difluoromethyl)-6-[[(1S)-1-(trifluoromethyl)propyl]amino]-3-pyridyl]-N-[(1R,3R)-3-hydroxycyclopentyl]thiazole-2-carboxamide] |  |  |
| 9.74 | 7.30 | 103 |  | CC[C@H](Nc1cc(C(F)F)c(-c2sc(C(=O)N[C@@H]3CCC[C@H]3O)nc2C(=O)N2CC(F)(F)C[C@@H]2C)cn1)C(F)(F)F [Example 425, 4-[(2S)-4,4-Difluoro-2-methyl-pyrrolidine-1-carbonyl]-5-[4-(difluoromethyl)-6-[[(1S)-1-(trifluoromethyl)propyl]amino]-3-pyridyl]-N-[(1R,2R)-2-hydroxycyclopentyl]thiazole-2-carboxamide] |  |  |
| 9.43 | 7.10 | 96 |  | CC[C@H](Nc1cc(C(F)F)c(-c2sc(C(=O)NC3CCS(=O)(=O)CC3)nc2C(=O)N2CC(F)(F)C[C@@H]2C)cn1)C(F)(F)F [Example 426, 4-[(2S)-4,4-Difluoro-2-methyl-pyrrolidine-1-carbonyl]-5-[4-(difluoromethyl)-6-[[(1S)-1-(trifluoromethyl)propyl]amino]-3-pyridyl]-N-(1,1-dioxothian-4-yl)thiazole-2-carboxamide] |  |  |
| 9.00 | 7.77 | 113 |  | C[C@H](CO)NC(=O)c1nc(C(=O)N2CC(F)(F)C[C@@H]2C)c(-c2cnc(NC(C)(C)C)cc2C(F)F)s1 [Example 428, 5-[6-(tert-Butylamino)-4-(difluoromethyl)-3-pyridyl]-4-[(2S)-4,4-difluoro-2-methyl-pyrrolidine-1-carbonyl]-N-[(1R)-2-hydroxy-1-methyl-ethyl]thiazole-2-carboxamide] |  |  |
| 8.60 | 8.02 |  | 113 | C[C@H]1CC(F)(F)CN1C(=O)c1nc(C(=O)N[C@H]2C[C@H](O)C2)sc1-c1cnc(NC(C)(C)C)cc1C(F)F [Example 429, 5-(6-(tert-Butylamino)-4-(difluoromethyl)pyridin-3-yl)-4-((S)-4,4-difluoro-2-methylpyrrolidine-1-carbonyl)-N-((1r,3S)-3-hydroxycyclobutyl)thiazole-2-carboxamide] |  |  |
| 9.44 | 7.70 | 107 |  | C[C@H]1CC(F)(F)CN1C(=O)c1nc(C(=O)NC2CCS(=O)(=O)CC2)sc1-c1cnc(NC(C)(C)C)cc1C(F)F [Example 431, 5-[6-(tert-Butylamino)-4-(difluoromethyl)-3-pyridyl]-4-[(2S)-4,4-difluoro-2-methyl-pyrrolidine-1-carbonyl]-N-(1,1-dioxothian-4-yl)thiazole-2-carboxamide] |  |  |
| 8.89 | 7.96 |  | 122 | C[C@H]1CCCN1C(=O)c1nc(C(=O)N[C@@H]2CC[C@@H](O)C2)sc1-c1cnc(NC(C)(C)C)cc1C(F)F [Example 432, 5-[6-(tert-Butylamino)-4-(difluoromethyl)-3-pyridyl]-N-[(1R,3R)-3-hydroxycyclopentyl]-4-[(2S)-2-methylpyrrolidine-1-carbonyl]thiazole-2-carboxamide] |  |  |
| 8.64 | 7.68 | 105 |  | C[C@H]1CCCN1C(=O)c1nc(C(=O)NC2CCS(=O)(=O)CC2)sc1-c1cnc(NC(C)(C)C)cc1C(F)F [Example 435, 5-[6-(tert-Butylamino)-4-(difluoromethyl)-3-pyridyl]-N-(1,1-dioxothian-4-yl)-4-[(2S)-2-methylpyrrolidine-1-carbonyl]thiazole-2-carboxamide] |  |  |

| SMILES | pKd [1] | pIC50 (full-length human RORγt; [2]) | inhibition at 3 µM (full-length human RORγt) [%] | inhibition at 0.33 µM (full-length human RORγt) [%] | inhibition at 1 µM (full-length human RORγt) [%] | pIC50 (full-length human RORγt; [3]) |
| --- | --- | --- | --- | --- | --- | --- |
| C[C@H](CO)NC(=O)c1nc(C(=O)N2C3CCC2CC3)c(-c2cnc(NC(C)(C)C)cc2C(F)F)s1 [Example 427, 4-((1s,4s)-7-Azabicyclo[2.2.1]heptane-7-carbonyl)-5-[6-(tert-butylamino)-4-(difluoromethyl)-3-pyridyl]-N-[(1R)-2-hydroxy-1-methyl-ethyl]thiazole-2-carboxamide] | 8.52 |  | 113 |  |  | 8.52 |
| CC(C)(C)Nc1cc(C(F)F)c(-c2sc(C(=O)N[C@@H]3CC[C@@H](O)C3)nc2C(=O)N2C3CCC2CC3)cn1 [Example 430, 4-((1s,4s)-7-Azabicyclo[2.2.1]heptane-7-carbonyl)-5-[6-(tert-butylamino)-4-(difluoromethyl)-3-pyridyl]-N-[(1R,3R)-3-hydroxycyclopentyl]thiazole-2-carboxamide] | 9.22 |  |  |  | 130 | 7.89 |
| CC(C)(C)Nc1cc(C(F)F)c(-c2sc(C(=O)NC3CCS(=O)(=O)CC3)nc2C(=O)N2C3CCC2CC3)cn1 [Example 433, 4-((1s,4s)-7-Azabicyclo[2.2.1]heptane-7-carbonyl)-5-[6-(tert-butylamino)-4-(difluoromethyl)-3-pyridyl]-N-(1,1-dioxothian-4-yl)thiazole-2-carboxamide] | 8.92 | 7.60 | 128 |  |  |  |
| CC(C)(C)Nc1cc(C(F)F)c(-c2sc(C(=O)N[C@@H]3CCC[C@H]3O)nc2C(=O)N2C3CCC2CC3)cn1 [Example 434, 4-((1s,4s)-7-Azabicyclo[2.2.1]heptane-7-carbonyl)-5-[6-(tert-butylamino)-4-(difluoromethyl)-3-pyridyl]-N-[(1R,2R)-2-hydroxycyclopentyl]thiazole-2-carboxamide] | 9.20 |  | 103 |  |  | 7.96 |
